Data on 3 substances can be found in patent US5789182A, “System for assaying binding to a heparin-binding growth factor receptor” (The Children's Medical Center Corporation, priority 1993, dated 1998).

Series [1] relates to endothelial cell migration. Particulars: cited from earlier work.
Another series relates to angiogenesis. The following applies: associated with embryogenesis and inflammation; cited from earlier work.
The test system of the next series is mouse FGF receptor (mFR). The experiment in a line: High-affinity receptor binding of 125I-bFGF to CHO cells transfected with mFR. The following applies: for high-affinity binding of bFGF: no heparin. The source says: The following cell lines were used: Balb/c fibroblasts; NIH 3T3 cells; CHO K1 cells (parental wild-type CHO cells, available as ATCC Accession No. CCL 61); clones 803 and 677, each of which is a clone of glucuronosyltransferase-deficient CHO K1 cells which lack cell-surface HSPG (in addition, 677 cells overexpress the closely related GAG, chondroitin sulfate); and clone 606, HS-N-sulfotransferase-deficient CHO K1-derived cells which express normal levels of (but undersulfated) cell surface HSPG. The mutant clones 803, 677, and 606 were obtained from Dr. Jeffrey D. Esko. Wild-type and mutant CHO cells were routinely grown in Hams F12 medium supplemented with 10% bovine fetal calf serum and L-glutamine (Sigma). For transfection of the murine FGF receptor, approximately 4×10^7 cells were trypsinized, washed in ice cold PBS, and incubated with 50 μg Mo/mFR/SV and 8 μg of CMV B-gal (source; used as a control for transfection efficiency) for 10 min at 4° C. Electroporation was done in a Bio-Rad Gene Pulser at 960 uF and 300V. Cells were then plated in 3 cm, 6-well plates, medium was replaced after 24 hours, and b-gal and binding assays were performed 36 to 48 hours after electroporation. Routinely, 30 to 40% of the cells stained positive for b-gal.
(§1) Subconfluent cultures of about 2×10^5 cells in a 30 mm dish (Costar) were precooled to 4° C., washed twice with cold Dulbecco's modified Eagle's medium supplemented with 25 mM HEPES pH 7.5 and 1% bovine serum albumin (DMEM/BSA), and incubated for 2 hours at 4° C. with ^125 I-bFGF (50 μCi/ mmole) in DMEM/BSA at different concentrations and in the presence or absence of heparin, as determined by the experimental protocol. The binding medium was then discarded and the cells washed twice with ice cold PBS and twice with DMEM/BSA. To determine the amount of low-affinity-bound bFGF, the cells were incubated twice for 5 minutes with cold PBS, pH 7.5, containing 1.6M NaCl (low-affinity-bound bFGF could be totally removed using salt concentrations of 0.8M and higher--data not shown), and the radioactivity of the salt extraction solution assayed in a gamma counter. High-affinity-bound bFGF was determined by a 2M NaCl (pH 4.0) extraction (Moscatelli, J. Cell Biol. 107:753-759, 1988). Nonspecific binding was determined by including a 100-fold excess of unlabeled bFGF. After binding in the presence or absence of heparin, bFGF-receptor crosslinking with disuccinimidyl suberate (DSS) was performed as described (Yayon and Klagsbrun, Proc. Natl. Acad. Sci. USA 87:5346-5350, 1990). Briefly, cells were washed twice with PBS and then incubated with 0.15 mM DSS in PBS for 15 minutes at room temperature. The cells were then washed with a solution of 50 mM Tris, pH 7.4, and 100 mM glycine; and scraped and lysed in a small volume of lysis buffer containing 150 mM NaCl, 20 mM Tris pH 8.0, 1mM MgCl2, 0.1 mM ZnCl2, 0.5% NP-40 (Sigma), 1 μg aprotinin (Sigma), 1 μg/ml leupeptin (Sigma), and 2 mM PMSF (phenylmethylsulfonyl fluoride; Sigma). The cell lysate, cleared by spinning down nuclei and cell debris, was boiled and then electrophoresed under reducing conditions on a 7% SDS polyacrylamide gel. After drying the gel, an autoradiogram was prepared using Kodak X-Omat AR film (Eastman Kodak Co., Rochester, N.Y.).

Series [2] relates to FRAP (mouse bFGF receptor/alkaline phosphatase fusion). Description: Cell-free assay: 125I-bFGF binding to FRAP fusion protein, immunoprecipitated with AP-specific antibody. Here is the method:
Conditioned medium from FRAP-A2 was assayed for its ability to bind ^125 I-bFGF by combining in the presence or in the absence of a standard amount of heparin, an aliquot of conditioned medium with a standard amount of ^125 I-bFGF and a standard amount of monoclonal antibody specific for placental alkaline phosphatase (Medix Biotech, Foster City, Calif.) coupled to CNBr-activated sepharose beads (Pharmacia, Piscataway, N.J.). The mixture was incubated for 90 min at 4° C. and centrifuged to pellet the beads, which were then washed two times with 0.5 ml PBS and re-pelleted before determining the amount of bound ^125 I in a gamma counter. […] In the experiment illustrated in FIG. 13, varying amounts of FRAP-A2-conditioned medium were combined with heparin and ^125 I-bFGF, while in FIG. 14 the variable was the concentration of heparin in the assay mix.

A short description of series [3]: Degradation of bFGF in binding medium (gel electrophoresis, biological activity assay). The class given is physicochemical. The following applies: aliquots at end of each experiment, with or without heparin. The source says: The heparin-dependent high-affinityreceptor binding was similar to that reported for non-heparin-dependent binding of bFGF to cells which naturally express both HSPG and high-affinity receptors for bFGF (Neufeld et al., J. Biol. Chem. 261:5631-5637, 1985).

Series [4] deals with serum-starved Balb/c fibroblasts. Description: Biological activity of iodinated bFGF. The class given is cell-based. Particulars: ability to stimulate serum-starved Balb/c fibroblasts. The text has this: Recombinant human bFGF was labeled with ^125 I (17 Ci/mg) (New England Nuclear, Boston, MA) using Iodo-beads (Pierce Chemical Co., Rockford, IL) according to the manufacturer's instructions. […] When subjected to SDS-PAGE, ^125 I-bFGF migrated as a single band in the same position as unlabeled bFGF.

In a further series the test system is mouse FGF receptor. The experiment in a line: Chemical crosslinking of 125I-bFGF to mFR-transfected CHO cells (DSS). The following applies: HS-deficient cells; unless heparin was included in the binding medium. Here is the method:
as §1, with “The cells were then washed with a solution of 50 mM Tris, pH 7.4, and 100 mM glycine; and scraped and lysed in a small volume of lysis buffer containing 150 mM NaCl, 20 mM Tris pH 8.0, 1mM MgCl2, 0.1 mM ZnCl2, 0.5% NP-40 (Sigma), 1 μg aprotinin (Sigma), 1 μg/ml leupeptin (Sigma), and 2 mM PMSF (phenylmethylsulfonyl fluoride; Sigma). The cell lysate, cleared by spinning down nuclei and cell debris, was boiled and then electrophoresed under reducing conditions on a 7% SDS polyacrylamide gel. After drying the gel, an autoradiogram was prepared using Kodak X-Omat AR film (Eastman Kodak Co., Rochester, N.Y.).” left out

Series [5] deals with cell surface heparin sulfate proteoglycans (low-affinity binding sites). Description: Low-affinity binding of 125I-bFGF to cells (1.6M NaCl extraction). Here is the method: as §1
Series [6] concerns high-affinity FGF receptors. Description: High-affinity binding of 125I-bFGF to untransfected CHO cells. Particulars: untransfected wild-type and mutant CHO cells, compared to NIH-3T3 cells. Here is the method: as §1, with “The cells were then washed with a solution of 50 mM Tris, pH 7.4, and 100 mM glycine; and scraped and lysed in a small volume of lysis buffer containing 150 mM NaCl, 20 mM Tris pH 8.0, 1mM MgCl2, 0.1 mM ZnCl2, 0.5% NP-40 (Sigma), 1 μg aprotinin (Sigma), 1 μg/ml leupeptin (Sigma), and 2 mM PMSF (phenylmethylsulfonyl fluoride; Sigma). The cell lysate, cleared by spinning down nuclei and cell debris, was boiled and then electrophoresed under reducing conditions on a 7% SDS polyacrylamide gel. After drying the gel, an autoradiogram was prepared using Kodak X-Omat AR film (Eastman Kodak Co., Rochester, N.Y.).” left out

On to Protamine, for which, in [1], the “effect on heparin-stimulated endothelial cell migration” value is reported as “inhibits the ability of heparin to stimulate endothelial cell migration”. Moreover, the effect on angiogenesis result in the series on angiogenesis is given as “inhibits angiogenesis”.

Regarding “^125 I-bFGF: recombinant human bFGF labeled with 125I using Iodo-beads [reference compound]”, the “125I-bFGF bound relative to untransfected cells” value in the series with mouse FGF receptor (mFR) (wild-type CHO cells transiently transfected with mFR) was 8-10 fold.

In the case of “bFGF: recombinant human basic fibroblast growth factor, gift from Takeda Inc.”, in the series with mouse FGF receptor (mFR) (HS-deficient cells, 40 ng/ml heparin), the “character of bFGF-receptor binding” value is given as “specific, saturable, single class of high-affinity binding sites”. In addition, in the series on mouse FGF receptor (mFR) (excess of unlabeled bFGF), the “competition of heparin-dependent high-affinity receptor binding of 125I-bFGF” value is “specifically competed out”. The “high-affinity binding of bFGF” value with mouse FGF receptor (mFR) (mFR-transfected HS-deficient mutants) was “none of the similarly transfected HS-deficient mutants showed significant high-affinity binding”; in the series with mouse FGF receptor (mFR) (wild-type CHO K1 cells transfected with Mo/mFR/SV), “high levels of high-affinity binding”; in [6], “very little high-affinity binding”. The “bound 125I with increasing concentrations of unlabelled FGF” value in series [2] (competition assay (FIG. 12)) is reported as “decrease”. Also, the “binding of labelled bFGF to fusion protein” value in series [2] (presence vs absence of heparin or a heparin-like molecule) is “in the presence but not in the absence”. For the same substance, the “degradation of bFGF in binding medium” value in series [3] is given as “no signs of degradation”. The “biological activity after iodination” value in series [4] was “Full biological activity”. For the same substance, the “crosslinking of bFGF to high-affinity receptors” value in the series with mouse FGF receptor is given as “could not be crosslinked”. In series [5] (CHO clone 606 (undersulfated HSPG)), the “reduction of low-affinity binding of bFGF compared to wild-type CHO cells” value was “more than 50%”. The “low-affinity binding of bFGF” value in series [5] (clone 677 cells (undetectable HSPG, overexpress chondroitin sulfate)) is reported as “Absence of low-affinity bFGF binding”; in [5] (clone 803 cells (5%-10% of wild-type HSPG)), “did not bind significant amounts”; in [5] (wild-type CHO K1 cells), “comparable to that found for NIH-3T3 cells”.
